Measurements reported in article PMC8015227, “Understanding the Metabolism of Proteolysis Targeting Chimeras (PROTACs): The Next Step toward Pharmaceutical Applications” (Journal of Medicinal Chemistry, 2020).
Read-outs that look alike come from different tables or passages of the source.

Test: Metabolic stability in cryopreserved human hepatocytes
Assay type: in vitro ADME
Conditions: human, cryopreserved human hepatocytes (pooled, suspension)
[1] = Figures 3-5, cryopreserved human hepatocytes, read-out: half-life (t1/2)
[2] = Table S1, PROTACs, cryopreserved human hepatocytes, read-out: t1/2
[3] = supplement CSV, human hepatocytes, read-out: HLH t1/2

Description: Cryopreserved human hepatocytes (pooled suspension hepatocytes, Gibco) were thawed placing in a 37 °C shaking water bath according to the manufacturer’s specifications and resuspended in Williams E medium (WEM) to have 1 × 10^6 cells/mL. Samples with the test compound at 1 μM were incubated at 37 °C, and aliquots of 50 μL were collected at 0, 10, 30, 60, 120, and 240 min. The incubations were quenched 1:3 with ice-cold acetonitrile (containing 1 μM labetalol as the internal standard). Samples were then centrifuged at 12000 rpm for 5 min at 4 °C. The supernatant was concentrated by evaporation under a nitrogen stream and reconstituted with DMSO. Blank was prepared similarly but in the absence of the investigated compounds.
A Thermo Q-exactive mass spectrometer (Thermo Fisher Scientific, Waltham, MA) was used. The LC system, governed by Chromeleon X-press software, consists of a Binary pump, a thermostated autosampler, and a column compartment, all Dionex Ultimate 3000 series modules (Thermo Fisher Scientific, Waltham, MA). A volume of 2 μL was injected for each sample. Chromatographic separation of analytes was conducted in reverse-phase chromatography. In brief, a Luna Omega 1.6 μm Polar (C18, 2.1 mm × 150 mm) was used, and the mobile phases consisted of water (A) and acetonitrile (B), both containing formic acid at 0.1%. The LC flow was set at 0.400 mL/min in a 12 min gradient elution as follows: 99.5:0.5 (A/B) to 5:95 (A/B) over 10 min, 5:95 (A/B) for 2 min, and then reversion back to 99.5:0.5 (A/B) over 2.5 min. The column was operating at a constant temperature of 40 °C.

half-life at 1 µM [1] [h]	half-life at 1 µM [2] [h]	half-life at 1 µM [3] [h]	Compound
0.303	0.303	0.303	Cc1sc2c(c1C)C(c1ccc(Cl)cc1)=N[C@@H](CC(=O)NCCCCCCCCNC(=O)COc1cccc3c1C(=O)N(C1CCC(=O)NC1=O)C3=O)c1nnc(C)n1-2 (stereo partly shown) [Compound 2, dBet6, reference compound]
	0.462	0.462	Cc1sc2c(c1C)C(c1ccc(Cl)cc1)=N[C@@H](CC(=O)Nc1ccc(OCCOCCOCCOCCNc3cccc4c3C(=O)N(C3CCC(=O)NC3=O)C4=O)cc1)c1nnc(C)n1-2 (stereo partly shown) [Compound 3, ARV-825, reference compound]
1.45	1.45	1.45	Cc1sc2c(c1C)C(c1ccc(Cl)cc1)=N[C@@H](CC(=O)NCCCN1CCN(CCCNc3cccc4c3C(=O)N(C3CCC(=O)NC3=O)C4=O)CC1)c1nnc(C)n1-2 (stereo partly drawn) [Compound 6, 2-((S)-4-(4-Chlorophenyl)-2,3,9-trimethyl-6H-thieno[3,2-f][1,2,4]triazolo[4,3-a][1,4]diazepin-6-yl)-N-(3-(4-(3-((2-(2,6-dioxopiperidin-3-yl)-1,3-dioxoisoindolin-4-yl)amino)propyl)piperazin-1-yl)propyl)acetamide]
	3.5	3.5	Cc1ncsc1-c1ccc(CNC(=O)[C@@H]2C[C@@H](O)CN2C(=O)[C@@H](NC(=O)COCCOCCOCCNC(=O)C[C@@H]2N=C(c3ccc(Cl)cc3)c3c(sc(C)c3C)-n3c(C)nnc32)C(C)(C)C)cc1 [Compound 7, MZ1, reference compound]
	1.36	1.36	Cc1ncsc1-c1ccc([C@H](C)NC(=O)[C@@H]2C[C@@H](O)CN2C(=O)[C@@H](NC(=O)CCCCCCNC(=O)C[C@@H]2N=C(c3ccc(Cl)cc3)c3c(sc(C)c3C)-n3c(C)nnc32)C(C)(C)C)cc1 [Compound 8, (2S,4R)-1-((S)-2-(7-(2-((S)-4-(4-Chlorophenyl)-2,3,9-trimethyl-6H-thieno[3,2-f][1,2,4]triazolo[4,3-a][1,4]diazepin-6-yl)acetamido)heptanamido)-3,3-dimethylbutanoyl)-4-hydroxy-N-((S)-1-(4-(4-methylthiazol-5-yl)phenyl)ethyl)pyrrolidine-2-carboxamide]
	2.28	2.28	Cc1ncsc1-c1ccc([C@H](C)NC(=O)[C@@H]2C[C@@H](O)CN2C(=O)[C@@H](NC(=O)COCCOCCNC(=O)C[C@@H]2N=C(c3ccc(Cl)cc3)c3c(sc(C)c3C)-n3c(C)nnc32)C(C)(C)C)cc1 [Compound 9, (2S,4R)-1-((S)-2-(tert-Butyl)-14-((S)-4-(4-chlorophenyl)-2,3,9-trimethyl-6H-thieno[3,2-f][1,2,4]triazolo[4,3-a][1,4]diazepin-6-yl)-4,13-dioxo-6,9-dioxa-3,12-diazatetradecanoyl)-4-hydroxy-N-((S)-1-(4-(4-methylthiazol-5-yl)phenyl)ethyl)pyrrolidine-2-carboxamide]
	2.52	2.52	Cc1ncsc1-c1ccc([C@H](C)NC(=O)[C@@H]2C[C@@H](O)CN2C(=O)[C@@H](NC(=O)COCCCOCCNC(=O)C[C@@H]2N=C(c3ccc(Cl)cc3)c3c(sc(C)c3C)-n3c(C)nnc32)C(C)(C)C)cc1 [Compound 10, ARV-771, reference compound]
	0.69	0.69	O=C(COc1cccc2c1C(=O)N(C1CCC(=O)NC1=O)C2=O)NCCCCCCCCNC(=O)c1ccc2c(c1)nc(Nc1cccc(Cl)c1)c1ccncc12 (stereo not shown) [Compound 12, 5-((3-Chlorophenyl)amino)-N-(8-(2-((2-(2,6-dioxopiperidin-3-yl)-1,3-dioxoisoindolin-4-yl)oxy)acetamido)octyl)benzo[c][2,6]naphthyridine-8-carboxamide]
	0.56	0.56	O=C(COc1cccc2c1C(=O)N(C1CCC(=O)NC1=O)C2=O)NCCCCCCCCCCNC(=O)c1ccc2c(c1)nc(Nc1cccc(Cl)c1)c1ccncc12 (stereo not shown) [Compound 13, 5-((3-Chlorophenyl)amino)-N-(10-(2-((2-(2,6-dioxopiperidin-3-yl)-1,3-dioxoisoindolin-4-yl)oxy)acetamido)decyl)benzo[c][2,6]naphthyridine-8-carboxamide]
	1.28	1.28	O=C(COc1cccc2c1C(=O)N(C1CCC(=O)NC1=O)C2=O)NCCOCCOCCOCCNC(=O)c1ccc2c(c1)nc(Nc1cccc(Cl)c1)c1ccncc12 (stereo not shown) [Compound 14, 5-((3-Chlorophenyl)amino)-N-(1-((2-(2,6-dioxopiperidin-3-yl)-1,3-dioxoisoindolin-4-yl)oxy)-2-oxo-6,9,12-trioxa-3-azatetradecan-14-yl)benzo[c][2,6]naphthyridine-8-carboxamide]
	0.578	0.578	O=C1CCC(N2C(=O)c3cccc(NCCCCCCNC(=O)c4ccc5c(c4)nc(Nc4cccc(Cl)c4)c4ccncc45)c3C2=O)C(=O)N1 (stereo not shown) [Compound 16, 5-((3-Chlorophenyl)amino)-N-(6-((2-(2,6-dioxopiperidin-3-yl)-1,3-dioxoisoindolin-4-yl)amino)hexyl)benzo[c][2,6]naphthyridine-8-carboxamide]
3.4	3.4	3.4	Cc1ncsc1-c1ccc([C@H](C)NC(=O)[C@@H]2C[C@@H](O)CN2C(=O)[C@@H](NC(=O)CCCCNC(=O)c2ccc3c(c2)nc(Nc2cccc(Cl)c2)c2ccncc23)C(C)(C)C)cc1 [Compound 17, 5-((3-Chlorophenyl)amino)-N-(5-(((S)-1-((2S,4R)-4-hydroxy-2-(((S)-1-(4-(4-methylthiazol-5-yl)phenyl)ethyl)carbamoyl)pyrrolidin-1-yl)-3,3-dimethyl-1-oxobutan-2-yl)amino)-5-oxopentyl)benzo[c][2,6]naphthyridine-8-carboxamide]
3.48	3.48	3.48	Cc1ncsc1-c1ccc([C@H](C)NC(=O)[C@@H]2C[C@@H](O)CN2C(=O)[C@@H](NC(=O)CCCCCCNC(=O)c2ccc3c(c2)nc(Nc2cccc(Cl)c2)c2ccncc23)C(C)(C)C)cc1 [Compound 18, 5-((3-Chlorophenyl)amino)-N-(7-(((S)-1-((2S,4R)-4-hydroxy-2-(((S)-1-(4-(4-methylthiazol-5-yl)phenyl)ethyl)carbamoyl)pyrrolidin-1-yl)-3,3-dimethyl-1-oxobutan-2-yl)amino)-7-oxoheptyl)benzo[c][2,6]naphthyridine-8-carboxamide]
	2.65	2.65	Cc1ncsc1-c1ccc([C@H](C)NC(=O)[C@@H]2C[C@@H](O)CN2C(=O)[C@@H](NC(=O)COCCCNC(=O)c2ccc3c(c2)nc(Nc2cccc(Cl)c2)c2ccncc23)C(C)(C)C)cc1 [Compound 19, 5-((3-Chlorophenyl)amino)-N-(3-(2-(((S)-1-((2S,4R)-4-hydroxy-2-(((S)-1-(4-(4-methylthiazol-5-yl)phenyl)ethyl)carbamoyl)pyrrolidin-1-yl)-3,3-dimethyl-1-oxobutan-2-yl)amino)-2-oxoethoxy)propyl)benzo[c][2,6]naphthyridine-8-carboxamide]
3.63	3.63	3.63	Cc1ncsc1-c1ccc([C@H](C)NC(=O)[C@@H]2C[C@@H](O)CN2C(=O)[C@@H](NC(=O)CN2CCN(C(=O)c3ccc4c(c3)nc(Nc3cccc(Cl)c3)c3ccncc34)CC2)C(C)(C)C)cc1 [Compound 20, (2S,4R)-1-((S)-2-(2-(4-(5-((3-Chlorophenyl)amino)benzo[c][2,6]naphthyridine-8-carbonyl)piperazin-1-yl)acetamido)-3,3-dimethylbutanoyl)-4-hydroxy-N-((S)-1-(4-(4-methylthiazol-5-yl)phenyl)ethyl)pyrrolidine-2-carboxamide]
	0.262	0.262	O=C1CCC(N2C(=O)c3cccc(NCCCCCCCCCCC(=O)N4CCN(C(=O)c5cc(Cc6n[nH]c(=O)c7ccccc67)ccc5F)CC4)c3C2=O)C(=O)N1 (stereo not shown) [Compound 21, 2-(2,6-Dioxopiperidin-3-yl)-4-((11-(4-(2-fluoro-5-((4-oxo-3,4-dihydrophthalazin-1-yl)methyl)benzoyl)piperazin-1-yl)-11-oxoundecyl)amino)isoindoline-1,3-dione]
	1.58	1.58	Cc1ncsc1-c1ccc([C@H](C)NC(=O)[C@@H]2C[C@@H](O)CN2C(=O)[C@@H](NC(=O)CCCCCCCCCCC(=O)N2CCN(C(=O)c3cc(Cc4n[nH]c(=O)c5ccccc45)ccc3F)CC2)C(C)(C)C)cc1 [Compound 22, (2S,4R)-1-((S)-2-(12-(4-(2-Fluoro-5-((4-oxo-3,4-dihydrophthalazin-1-yl)methyl)benzoyl)piperazin-1-yl)-12-oxododecanamido)-3,3-dimethylbutanoyl)-4-hydroxy-N-((S)-1-(4-(4-methylthiazol-5-yl)phenyl)ethyl)pyrrolidine-2-carboxamide]
	1.52	1.52	Cc1ncsc1-c1ccc([C@H](C)NC(=O)[C@@H]2C[C@@H](O)CN2C(=O)[C@@H](NC(=O)CCCCCCC(=O)N2CCN(C(=O)c3cc(Cc4n[nH]c(=O)c5ccccc45)ccc3F)CC2)C(C)(C)C)cc1 [Compound 23, (2S,4R)-1-((S)-2-(8-(4-(2-Fluoro-5-((4-oxo-3,4-dihydrophthalazin-1-yl)methyl)benzoyl)piperazin-1-yl)-8-oxooctanamido)-3,3-dimethylbutanoyl)-4-hydroxy-N-((S)-1-(4-(4-methylthiazol-5-yl)phenyl)ethyl)pyrrolidine-2-carboxamide]
	1.11	1.11	O=C(COc1cccc2c1C(=O)N(C1CCC(=O)NC1=O)C2=O)NCCOCCOCCOCCNC(=O)COc1c(-c2csc(N3CCOCC3)n2)ccc(F)c1F (stereo not shown) [Compound 28, 2-(2,3-Difluoro-6-(2-morpholinothiazol-4-yl)phenoxy)-N-(1-((2-(2,6-dioxopiperidin-3-yl)-1,3-dioxoisoindolin-4-yl)oxy)-2-oxo-6,9,12-trioxa-3-azatetradecan-14-yl)acetamide]
